In US20240158392A1 (Janssen Biotech, Inc., priority 2021, published 2024):

biological target: T1, SIK2 (Homo sapiens, UniProt Q9H0K1); assay: SIK2 Enzymatic Assay Version 1 (ADP Glo); type: biochemical; details: enzyme 0.6 nM, 160 μM ATP and 140 μM HDAC5tide (each 2× final concentration); 30 minutes pre-incubation, 4 hours; ADPGlo luminescence; read-out: SIK2 ADP Glo IC50 (μM) (Test Example 1)
Description: All steps were performed at room temperature. Compounds were pre-plated onto an assay plate using an Echo acoustic dispenser (Labcyte, E550 or E555) at 20 nL per well. Enzyme prepared in Assay Buffer at 0.6 nM (2× final concentration) was added at 2 μL per well using the Multidrop Combi (Thermo Fisher—used for all additions in this assay) to the assay plate, spun for 1 min at 800-850 rpm (Allegra 6KR Beckman Coulter centrifuge), and incubated with compound for 30 minutes.
One column of wells was dedicated to a no-peptide negative control (containing only ATP). ADPGlo Reagent (prepared and aliquoted as per manufacturer instructions) was then added at 2 μL per well, spun and incubated for 40 min. ADPGlo Detection (prepared and aliquoted as per manufacturer instructions) was added at 2 μL per well to the assay plate, which was spun and incubated for at least 30 min. The plate was then read on the Pherastar (BMG Labtech) using a luminescence read. Gain was set by the 0.1 mM concentration of ADP wells in the ADP/ATP standard curve plate generated as per manufacturer instructions.

T1 sequence (Q9H0K1 whole entry, species assumed): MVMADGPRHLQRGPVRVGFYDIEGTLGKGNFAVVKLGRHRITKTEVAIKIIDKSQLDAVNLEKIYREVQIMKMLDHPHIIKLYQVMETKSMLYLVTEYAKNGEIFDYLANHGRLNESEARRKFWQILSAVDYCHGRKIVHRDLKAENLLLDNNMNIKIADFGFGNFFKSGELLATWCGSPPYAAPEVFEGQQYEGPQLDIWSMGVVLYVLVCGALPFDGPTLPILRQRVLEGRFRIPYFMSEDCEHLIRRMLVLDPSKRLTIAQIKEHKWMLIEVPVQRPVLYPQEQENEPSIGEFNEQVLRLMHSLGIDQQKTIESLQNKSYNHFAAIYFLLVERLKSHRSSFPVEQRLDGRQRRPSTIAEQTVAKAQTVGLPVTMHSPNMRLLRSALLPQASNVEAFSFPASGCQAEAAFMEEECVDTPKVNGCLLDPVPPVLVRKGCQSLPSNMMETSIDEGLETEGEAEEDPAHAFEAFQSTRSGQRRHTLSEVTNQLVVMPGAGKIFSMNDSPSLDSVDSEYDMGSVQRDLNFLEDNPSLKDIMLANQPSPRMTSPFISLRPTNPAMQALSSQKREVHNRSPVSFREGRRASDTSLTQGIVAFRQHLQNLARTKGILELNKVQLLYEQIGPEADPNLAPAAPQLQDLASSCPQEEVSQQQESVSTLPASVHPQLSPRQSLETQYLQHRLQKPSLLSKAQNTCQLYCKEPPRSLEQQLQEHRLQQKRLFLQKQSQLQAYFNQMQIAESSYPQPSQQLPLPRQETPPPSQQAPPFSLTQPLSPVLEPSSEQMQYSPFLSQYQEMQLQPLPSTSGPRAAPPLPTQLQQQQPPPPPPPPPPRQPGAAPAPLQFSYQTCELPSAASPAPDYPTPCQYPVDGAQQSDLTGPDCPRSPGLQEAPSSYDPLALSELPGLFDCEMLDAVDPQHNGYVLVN

| Compound | IC50 [µM] |
| --- | --- |
| N#Cc1cc(-c2ccn3nc(NC(=O)C4CC4)cc3c2)c(N2CCC(O)(C(F)(F)F)C2)cn1 (racemic) [Example 87, (rac-)-N-[5-[2-cyano-5-[3-hydroxy-3-(trifluoromethyl)pyrrolidin-1-yl]-4-pyridyl]pyrazolo[1,5-a]pyridin-2-yl]cyclopropanecarboxamide] | 0.118 |
| N#Cc1cc(-c2ccn3nc(NC(=O)C4CC4)cc3c2)c(O[C@H]2CCN[C@@H](C(F)(F)F)C2)cn1 (single isomer, unassigned) [Example 14, N-(5-(2-cyano-5-(((2*R,4*S)-2-(trifluoromethyl)piperidin-4-yl)oxy)pyridin-4-yl)pyrazolo[1,5-a]pyridin-2-yl)cyclopropanecarboxamide] | 0.0249 |
| N#Cc1cc(-c2ccn3nc(NC(=O)C4CC4)cc3c2)c(O[C@H]2C[C@H]3C[C@@H]2CN3)cn1 (single isomer, unassigned) [Example 18, N-[5-[5-[[(1*R,4*R,5*S)-2-azabicyclo[2.2.1]heptan-5-yl]oxy]-2-cyano-4-pyridyl]pyrazolo[1,5-a]pyridin-2-yl]cyclopropanecarboxamide] | 0.00158 |
| CC(C)(C)OC(=O)N1CCC(COc2cnc(C#N)cc2-c2ccn3nc(NC(=O)C4CC4)cc3c2)C1 (stereo in doubt) [Example 35, tert-butyl (3R)-3-[[6-cyano-4-[2-(cyclopropanecarbonylamino)pyrazolo[1,5-a]pyridin-5-yl]-3-pyridyl]oxymethyl]pyrrolidine-1-carboxylate] | 0.0354 |
| CN(C)CCNc1cnc(C#N)cc1-c1ccn2nc(NC(=O)C3CC3)cc2c1 [Example 2, N-[5-[2-cyano-5-(2-dimethylaminoethylamino)-4-pyridyl]pyrazolo[1,5-a]pyridin-2-yl]cyclopropanecarboxamide] | 0.0691 |
| N#Cc1cc(-c2ccn3nc(NC(=O)C4CC4)cc3c2)c(N2CC(CO)C2)cn1 [Example 3, N-[5-[2-cyano-5-[3-(hydroxymethyl)azetidin-1-yl]-4-pyridyl]pyrazolo[1,5-a]pyridin-2-yl]cyclopropanecarboxamide] | 0.0183 |
| N#Cc1cc(-c2ccn3nc(NC(=O)C4CC4)cc3c2)c(OC2(C(F)(F)F)CCNCC2)cn1 [Example 9, N-(5-(2-cyano-5-((4-(trifluoromethyl)piperidin-4-yl)oxy)pyridin-4-yl)pyrazolo[1,5-a]pyridin-2-yl)cyclopropanecarboxamide] | 0.152 |
| CN1CCOC[C@H](Oc2cnc(C#N)cc2-c2ccn3nc(NC(=O)C4CC4)cc3c2)C1 [Example 12, N-[5-[2-cyano-5-[[(6R)-4-methyl-1,4-oxazepan-6-yl]oxy]-4-pyridyl]pyrazolo[1,5-a]pyridin-2-yl]cyclopropanecarboxamide] | 0.0133 |
| N#Cc1cc(-c2ccn3nc(NC(=O)C4CC4)cc3c2)c(O[C@@H]2CNCCOC2)cn1 [Example 21, N-[5-[2-cyano-5-[[(6R)-1,4-oxazepan-6-yl]oxy]-4-pyridyl]pyrazolo[1,5-a]pyridin-2-yl]cyclopropanecarboxamide] | 0.0213 |
| N#Cc1cc(-c2ccn3nc(NC(=O)C4CC4)cc3c2)c(OC[C@@H]2CC[C@@H](N)C2)cn1 [Example 22, N-[5-[5-[[(1R,3R)-3-aminocyclopentyl]methoxy]-2-cyano-4-pyridyl]pyrazolo[1,5-a]pyridin-2-yl]cyclopropanecarboxamide] | 0.00121 |
| N#Cc1cc(-c2ccn3nc(NC(=O)C4CC4)cc3c2)c(O[C@@H]2CCN(C3CC3)C2)cn1 [Example 25, N-[5-[2-cyano-5-[(3R)-1-cyclopropylpyrrolidin-3-yl]oxy-4-pyridyl]pyrazolo[1,5-a]pyridin-2-yl]cyclopropanecarboxamide] | 0.00145 |
| CN1CCOC[C@@H](Oc2cnc(C#N)cc2-c2ccn3nc(NC(=O)C4CC4)cc3c2)C1 [Example 26, N-[5-[2-cyano-5-[[(6S)-4-methyl-1,4-oxazepan-6-yl]oxy]-4-pyridyl]pyrazolo[1,5-a]pyridin-2-yl]cyclopropanecarboxamide] | 0.0123 |

biological target: T1, SIK2; assay: SIK2 Enzymatic Assay High Version 2 (High ATP); type: biochemical; details: enzyme 6 nM, 6 mM ATP and 400 μM HDAC5tide (each 2× final concentration); 30 minutes pre-incubation, 2 hours; ADP-Glo Max luminescence; read-out: SIK2 high ATP IC50 (μM) (Test Example 2)
Outline: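 At room temperature, enzyme (6 nM, 2× final) was preincubated with compound for 30 min, then 6 mM ATP and 400 μM HDAC5tide (both 2× final) were added for 2 h. ADP formed was measured by ADP-Glo Max (2 h reagent, 1 h detection) using luminescence.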

| Compound | IC50 [µM] |
| --- | --- |
| CC(C)(C#N)COc1cnc(OC(F)F)cc1-c1ccn2nc(Nc3ccc4c(n3)CNCC4)cc2c1 [Example 719, 3-[[6-(difluoromethoxy)-4-[2-(5,6,7,8-tetrahydro-1,7-naphthyridin-2-ylamino)pyrazolo[1,5-a]pyridin-5-yl]-3-pyridyl]oxy]-2,2-dimethyl-propanenitrile] | 0.0216 |
| Cc1cc(Nc2cc3cc(-c4cc(OC(F)F)ncc4OCC4(C#N)CC4)ccn3n2)nc(C)n1 [Example 720, 1-[[6-(difluoromethoxy)-4-[2-[(2,6-dimethylpyrimidin-4-yl)amino]pyrazolo[1,5-a]pyridin-5-yl]-3-pyridyl]oxymethyl]cyclopropanecarbonitrile] | 0.00954 |
| Cc1cc(-c2ccn3nc(Nc4cc(C)nc(C)n4)cc3c2)c(OCCC2(C#N)COC2)cn1 [Example 722, 3-[2-[[4-[2-[(2,6-dimethylpyrimidin-4-yl)amino]pyrazolo[1,5-a]pyridin-5-yl]-6-methyl-3-pyridyl]oxy]ethyl]oxetane-3-carbonitrile] | 0.01 |
| O=C(Nc1cc2cc(-c3cc(OC(F)F)ncc3O[C@H]3CC[C@H](O)CC3)ccn2n1)C1CC1 [Example 723, N-[5-[2-(difluoromethoxy)-5-(4-hydroxycyclohexoxy)-4-pyridyl]pyrazolo[1,5-a]pyridin-2-yl]cyclopropanecarboxamide] | 0.00163 |
| CC(C)(C#N)COc1cnc(OCC#N)cc1-c1ccn2nc(NC(=O)C3CC3)cc2c1 [Example 724, N-[5-[2-(cyanomethoxy)-5-(2-cyano-2-methyl-propoxy)-4-pyridyl]pyrazolo[1,5-a]pyridin-2-yl]cyclopropanecarboxamide] | 0.0155 |
| CNc1nc(C)cc(Nc2cc3cc(-c4cc(OCC(F)F)ncc4OCC(C)(C)C#N)ccn3n2)n1 [Example 725, 3-[[6-(2,2-difluoroethoxy)-4-[2-[[6-methyl-2-(methylamino)pyrimidin-4-yl]amino]pyrazolo[1,5-a]pyridin-5-yl]-3-pyridyl]oxy]-2,2-dimethyl-propanenitrile] | 0.00405 |
| Cc1cc(Nc2cc3cc(-c4cc(OC(F)F)ncc4OCC(C)(C)C(N)=O)ccn3n2)nc(C)n1 [Example 727, 3-[[6-(difluoromethoxy)-4-[2-[(2,6-dimethylpyrimidin-4-yl)amino]pyrazolo[1,5-a]pyridin-5-yl]-3-pyridyl]oxy]-2,2-dimethyl-propanamide] | 0.0152 |
| Cc1cc(Nc2cc3cc(-c4cc(OC(F)F)ncc4OCC(C)(C)C(=O)N(C)C)ccn3n2)nc(C)n1 [Example 728, 3-[[6-(difluoromethoxy)-4-[2-[(2,6-dimethylpyrimidin-4-yl)amino]pyrazolo[1,5-a]pyridin-5-yl]-3-pyridyl]oxy]-N,N,2,2-tetramethyl-propanamide] | 0.0049 |
| Cc1cc(Nc2cc3cc(-c4cc(OCC(F)F)ncc4OCC(C)(C)C#N)ccn3n2)nn(C2CC2)c1=O [Example 730, 3-[[4-[2-[(1-cyclopropyl-5-methyl-6-oxo-pyridazin-3-yl)amino]pyrazolo[1,5-a]pyridin-5-yl]-6-(2,2-difluoroethoxy)-3-pyridyl]oxy]-2,2-dimethyl-propanenitrile] | 0.0154 |
| Cc1cc(Nc2cc3cc(-c4cc(OC(F)F)ncc4OCC(C)(C)C(=O)N(C)C)ccn3n2)nc(C)n1 [Example 735, 3-[[6-(difluoromethoxy)-4-[2-[(2,6-dimethylpyrimidin-4-yl)amino]pyrazolo[1,5-a]pyridin-5-yl]-3-pyridyl]oxy]-N,N,2,2-tetramethyl-propanamide] | 0.00911 |
| Cc1cc(Nc2cc3cc(-c4cc(OCC(F)F)ncc4OCC(C)(C)C#N)ccn3n2)nn(C2CC2)c1=O [Example 737, 3-((4-(2-((1-cyclopropyl-5-methyl-6-oxo-1,6-dihydropyridazin-3-yl)amino)pyrazolo[1,5-a]pyridin-5-yl)-6-(2,2-difluoroethoxy)pyridin-3-yl)oxy)-2,2-dimethylpropanenitrile] | 0.014 |
| Cc1cc(Nc2cc3cc(-c4cc(OC(F)(F)F)ccc4OCC(C)(C)C#N)ccn3n2)nc(C)n1 [Example 754, 3-[2-[2-[(2,6-dimethylpyrimidin-4-yl)amino]pyrazolo[1,5-a]pyridin-5-yl]-4-(trifluoromethoxy)phenoxy]-2,2-dimethyl-propanenitrile] | 0.071 |
| (*S)-4-[[6-(difluoromethoxy)-4-[2-[(2,6-dimethylpyrimidin-4-yl)amino]pyrazolo[1,5-a]pyridin-5-yl]-3-pyridyl]oxymethyl]-1,5,5-trimethyl-pyrrolidin-2-one [Example 734] | 0.00307 |
| (*S)-4-[[6-(difluoromethoxy)-4-[2-[(2,6-dimethylpyrimidin-4-yl)amino]pyrazolo[1,5-a]pyridin-5-yl]-3-pyridyl]oxymethyl]-1,5,5-trimethyl-pyrrolidin-2-one [Example 741] | 0.00266 |
| N-[5-[2-cyano-5-[[(1R,5S,7s)-9-methyl-3-oxa-9-azabicyclo[3.3.1]nonan-7-yl]oxy]-4-pyridyl]pyrazolo[1,5-a]pyridin-2-yl]cyclopropanecarboxamide [Example 656] | 0.132 |
